Results taken from patent EP0511791A2, “Pyrrolopyridine derivatives as Angiotensin inhibitors” (ZENECA LIMITED, priority 1991, dated 1992).

Test system: angiotensin II-induced pressor responses
Test: Test C: antagonism of angiotensin II-induced pressor responses in rats
Format: in vivo
Conditions: Rattus norvegicus, iv, i.v. administration
Description: Test C: This in vivo test involves using terminally-anaesthetised or conscious rats in which an arterial catheter has been implanted under anaesthesia for the measurement of changes in blood pressure. The All antagonistic effects of the test compound following oral or parenteral administration, are assessed against angiotensin II-induced pressor responses. To ensure that the effect is specific, the effect of the test compound on vasopressin-induced pressor responses may also be determined in the same preparation.

Work on Cc1cc2c(cc(C)n2Cc2ccc(-c3ccccc3-c3nnn[nH]3)cc2)c(Cl)n1.Cl [Example 2, 4-chloro-2,6-dimethyl-1-[(2'-(1H-tetrazol-5-yl)biphenyl-4-yl)methyl]-1H-pyrrolo[3,2-c]pyridine hydrochloride] yielded an ED50 of 0.4 mg/kg.
